ChEMBL document CHEMBL4806957, “Cdk8/cdk19 selective inhibitors and their use in anti-metastatic and chemopreventive methods for cancer” (2019)
Active and inactive are the calls of the source. The calls are words filed in the database; no cut-off is given here.

Key:
[1] = Solubility of compound in water at 10 mM after 30 mins; assay type: physicochemical; conditions: buffer, 0.5 h, 10000 µM
[2] = Toxicity in BALB/c mouse assessed as decrease in lung weight at 40 mg/kg, ip administered with 5 daily doses and 2 days off and another 5 daily dosing schedule for 12 days; assay type: organism-based; conditions: in vivo, 288 h, time 12 day
[3] = AUC in rat at 40 mg/kg, ip; assay type: ADME, organism-based; design: dose 40 mg/kg; conditions: in vivo
[4] = Toxicity in BALB/c mouse assessed as decrease in liver weight at 40 mg/kg, ip administered with 5 daily doses and 2 days off and another 5 daily dosing schedule for 12 days; assay type: organism-based; conditions: in vivo, 288 h, time 12 day
4T1 = experiment: Growth inhibition of mouse 4T1 cells at 0.078 to 10 uM after 5 days by MTT assay; assay type: functional, cell-based; conditions: dose 0.078-10 µM, time 5.0 day
[5] = target: T1, Cyclin-dependent kinase 8 (Homo sapiens, UniProt P49336); experiment: Inhibition of CDK8 (unknown origin)
T1 sequence (P49336 whole entry): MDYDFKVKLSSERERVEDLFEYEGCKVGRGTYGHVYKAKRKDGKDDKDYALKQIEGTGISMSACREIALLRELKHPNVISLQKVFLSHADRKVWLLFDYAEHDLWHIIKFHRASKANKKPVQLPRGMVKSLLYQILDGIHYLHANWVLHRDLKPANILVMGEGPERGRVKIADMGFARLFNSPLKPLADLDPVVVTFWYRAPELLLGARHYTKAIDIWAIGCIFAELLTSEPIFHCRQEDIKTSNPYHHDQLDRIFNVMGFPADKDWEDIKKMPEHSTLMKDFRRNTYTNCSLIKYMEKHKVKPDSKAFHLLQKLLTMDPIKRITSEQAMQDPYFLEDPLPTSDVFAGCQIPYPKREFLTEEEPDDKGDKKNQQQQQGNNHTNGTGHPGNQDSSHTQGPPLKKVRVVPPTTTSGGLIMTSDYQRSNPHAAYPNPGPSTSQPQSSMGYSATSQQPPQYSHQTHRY

[6] = Toxicity in BALB/c mouse assessed as body weight gain at 40 mg/kg, ip administered with 5 daily doses and 2 days off and another 5 daily dosing schedule for 12 days; assay type: organism-based; conditions: in vivo, 288 h, time 12 day
[7] = target: Cyclin-dependent kinase 19 (Homo sapiens) (UniProt Q9BWU1); experiment: Inhibition of human […] (M1 to N360 residues) expressed in bacterial expression system at 2000 nM by KINOMEscan assay relative to control
Chain of Cyclin-dependent kinase 19 (Homo sapiens) (Q9BWU1 whole entry, the tested form may be a part): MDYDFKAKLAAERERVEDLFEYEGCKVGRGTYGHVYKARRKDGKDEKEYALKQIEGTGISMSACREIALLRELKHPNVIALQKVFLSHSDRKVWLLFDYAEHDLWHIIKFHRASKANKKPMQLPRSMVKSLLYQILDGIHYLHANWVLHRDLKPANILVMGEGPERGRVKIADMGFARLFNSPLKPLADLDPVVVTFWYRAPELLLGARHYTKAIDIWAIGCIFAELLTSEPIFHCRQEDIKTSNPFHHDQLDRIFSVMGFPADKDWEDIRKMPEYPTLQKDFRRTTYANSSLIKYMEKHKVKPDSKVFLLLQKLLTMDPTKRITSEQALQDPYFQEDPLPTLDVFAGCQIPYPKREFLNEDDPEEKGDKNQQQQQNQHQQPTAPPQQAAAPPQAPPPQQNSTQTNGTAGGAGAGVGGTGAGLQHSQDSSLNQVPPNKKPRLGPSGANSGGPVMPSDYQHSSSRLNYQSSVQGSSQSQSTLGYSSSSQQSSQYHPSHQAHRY

[8] = target: T1, Cyclin-dependent kinase 8; experiment: Inhibition of human CDK8 (M1 to T360 residues) expressed in bacterial expression system at 2000 nM by KINOMEscan assay relative to control
MDA-MB-468 [9] = experiment: Antitumor activity against human MDA-MB-468 cells xenografted in mouse assessed as reduction in tumor growth pretreated with compound at 40 mg/kg, ip administered for 3 days followed by tumor injection by caliper method; assay type: functional, organism-based; conditions: time 3.0 day
MDA-MB-231 [10] = experiment: Antitumor activity against human MDA-MB-231 cells xenografted in SCID mouse assessed as reduction in tumor growth at 40 mg/kg, ip administered as 5 daily doses; assay type: functional, organism-based
[11] = Toxicity in mouse xenografted with human MDA-MB-231 cells assessed as reduction in body weight at 40 mg/kg administered as 5 daily doses; assay type: organism-based; conditions: in vivo
[12] = Toxicity in BALB/c mouse assessed as decrease in kidney weight at 40 mg/kg, ip administered with 5 daily doses and 2 days off and another 5 daily dosing schedule for 12 days; assay type: organism-based; conditions: in vivo, 288 h, time 12 day
MDA-MB-231 [13] = experiment: Additive antitumor activity against human MDA-MB-231 cells xenografted in SCID mouse assessed as reduction in tumor growth at 40 mg/kg, ip administered as 5 daily doses in presence of doxorubicin; assay type: functional, organism-based
MDA-MB-468 [14] = experiment: Antitumor activity against human MDA-MB-468 cells xenografted in mouse assessed as reduction in tumor growth at 40 mg/kg, ip by caliper method; assay type: functional, organism-based
[15] = Toxicity in BALB/c mouse assessed as decrease in thymus weight at 40 mg/kg, ip administered with 5 daily doses and 2 days off and another 5 daily dosing schedule for 12 days; assay type: organism-based; conditions: in vivo, 288 h, time 12 day
A549 = experiment: Antitumor activity against human A549 cells xenografted in CB-17 SCID mouse assessed as reduction in tumor growth pretreated with compound at 40 mg/kg, ip administered 5 daily dose followed by tumor injection and monitored twice a week starting from 7 days after post tumor injection to 24 days by caliper method; assay type: functional, organism-based; conditions: time 24.0 day
[16] = Toxicity in BALB/c mouse assessed as decrease in spleen weight at 40 mg/kg, ip administered with 5 daily doses and 2 days off and another 5 daily dosing schedule for 12 days; assay type: organism-based; design: scale not given: the % may be the effect or the level left; conditions: in vivo, 288 h, time 12 day
[17] = Solubility of compound in water at 50 mM after 30 mins; assay type: physicochemical; conditions: buffer, 0.5 h, 50000 µM
[18] = target: T1, Cyclin-dependent kinase 8; experiment: Inhibition of CDK8 in human HT1080 cells assessed as inhibition of IPTG-inducible p21 induced CMV-GFP expression by Hoechst 33342 staining-based fluorescence assay; assay type: cell-based; conditions: HT-1080
MDA-MB-468 [19] = experiment: Antitumor activity against human MDA-MB-468 cells xenografted in nude mouse assessed as slower appearance of palpable tumor pretreated with compound at 25 mg/kg, ip administered 5 daily dose followed by tumor injection and monitored every day; assay type: functional, organism-based
[20] = target: T2, Catenin beta-1 (Homo sapiens) (UniProt P35222); experiment: Inhibition of beta-catenin activity in human HCT116 cells assessed as reduction in TOPFlash promoter mediated luciferase expression; assay type: cell-based; conditions: HCT-116, dose […]
T2 sequence (whole entry): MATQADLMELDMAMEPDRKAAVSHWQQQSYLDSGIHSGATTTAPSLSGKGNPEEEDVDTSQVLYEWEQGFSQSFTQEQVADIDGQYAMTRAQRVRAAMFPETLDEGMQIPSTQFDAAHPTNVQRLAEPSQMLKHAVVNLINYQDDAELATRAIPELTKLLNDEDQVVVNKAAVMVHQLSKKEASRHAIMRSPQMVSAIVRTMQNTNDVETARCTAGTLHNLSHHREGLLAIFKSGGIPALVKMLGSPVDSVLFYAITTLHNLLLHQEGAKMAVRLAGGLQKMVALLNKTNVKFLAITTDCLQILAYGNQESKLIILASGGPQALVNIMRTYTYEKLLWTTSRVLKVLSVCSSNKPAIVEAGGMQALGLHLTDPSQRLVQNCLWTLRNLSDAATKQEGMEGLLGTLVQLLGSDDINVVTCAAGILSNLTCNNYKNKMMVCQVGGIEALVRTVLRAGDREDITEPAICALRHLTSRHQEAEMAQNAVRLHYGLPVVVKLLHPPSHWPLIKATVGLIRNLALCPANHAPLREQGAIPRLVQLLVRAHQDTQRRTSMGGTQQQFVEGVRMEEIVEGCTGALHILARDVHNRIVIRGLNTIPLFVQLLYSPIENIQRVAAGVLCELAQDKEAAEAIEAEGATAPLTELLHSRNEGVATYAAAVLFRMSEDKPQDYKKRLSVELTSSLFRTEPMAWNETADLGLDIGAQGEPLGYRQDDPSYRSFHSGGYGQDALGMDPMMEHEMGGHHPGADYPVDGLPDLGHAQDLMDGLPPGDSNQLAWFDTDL

[21] = target: T1, Cyclin-dependent kinase 8; experiment: Inhibition of CDK8 (unknown origin) by Pro-Qinase assay
MDA-MB-468 [22] = experiment: Antitumor activity against human MDA-MB-468 cells xenografted in nude mouse assessed as reduction in tumor growth at 40 mg/kg, ip administered daily for 30 days by caliper method; assay type: functional, organism-based; conditions: time 30.0 day
[23] = Toxicity in BALB/c mouse assessed as decrease in lymphocytes count at 40 mg/kg, ip administered with 5 daily doses and 2 days off and another 5 daily dosing schedule for 12 days; assay type: organism-based; design: scale not given: the % may be the effect or the level left; conditions: in vivo, 288 h, time 12 day
MDA-MB-468 [24] = experiment: Antitumor activity against human MDA-MB-468 cells xenografted in nude mouse assessed as reduction in tumor growth at 40 mg/kg, ip administered daily for 30 days in presence of doxorubicin by caliper method; assay type: functional, organism-based; conditions: time 30.0 day
[25] = Plasma concentration in mouse at 100 mg/kg administered via gavage; assay type: ADME, organism-based; conditions: in vivo, po
[26] = Toxicity in BALB/c mouse assessed as decrease in brain weight at 40 mg/kg, ip administered with 5 daily doses and 2 days off and another 5 daily dosing schedule for 12 days; assay type: organism-based; conditions: in vivo, 288 h, time 12 day
MDA-MB-468 [27] = experiment: Antitumor activity against human MDA-MB-468 cells xenografted in nude mouse assessed as non-invasive tumor growth at 40 mg/kg, ip administered daily for 30 days in presence of doxorubicin by H and E staining based histological analysis; assay type: functional, organism-based; conditions: time 30.0 day
[28] = target: Cyclin-dependent kinase 9 (Homo sapiens, UniProt P50750); experiment: Inhibition of CDK9 (unknown origin)
Chain of Cyclin-dependent kinase 9 (P50750 whole entry): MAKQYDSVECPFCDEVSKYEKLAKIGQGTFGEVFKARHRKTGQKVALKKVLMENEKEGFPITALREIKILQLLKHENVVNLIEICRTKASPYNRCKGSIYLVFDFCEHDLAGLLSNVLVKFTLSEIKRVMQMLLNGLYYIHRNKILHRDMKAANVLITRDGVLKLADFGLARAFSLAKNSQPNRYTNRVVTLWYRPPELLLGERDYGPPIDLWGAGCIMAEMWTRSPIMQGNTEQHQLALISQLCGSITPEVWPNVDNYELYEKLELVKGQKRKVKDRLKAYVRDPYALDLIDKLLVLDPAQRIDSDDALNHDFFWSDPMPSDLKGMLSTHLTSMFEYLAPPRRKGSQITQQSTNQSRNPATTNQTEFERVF

MDA-MB-468 [29] = experiment: Antitumor activity against human MDA-MB-468 cells xenografted in nude mouse assessed as non-invasive tumor growth at 40 mg/kg, ip administered daily for 30 days by H and E staining based histological analysis; assay type: functional, organism-based; conditions: time 30.0 day
MDA-MB-157 = experiment: Growth inhibition of human MDA-MB-157 cells after 5 days by MTT assay; assay type: functional, cell-based; conditions: dose 0.078-10 µM, time 5.0 day
MDA-MB-468 [30] = experiment: Growth inhibition of human MDA-MB-468 cells after 5 days by MTT assay; assay type: functional, cell-based; conditions: dose 0.078-10 µM, time 5.0 day
[31] = Solubility of compound in water at < 50 mM after 30 mins; assay type: physicochemical; conditions: buffer, 0.5 h
MDA-MB-468 [32] = experiment: Antitumor activity against human MDA-MB-468 cells xenografted in nude mouse assessed as invasive tumor growth at 4 mg/kg, ip administered daily for 30 days by H and E staining based histological analysis; assay type: functional, organism-based; conditions: time 30.0 day
MDA-MB-231 [33] = experiment: Antitumor activity against human MDA-MB-231 cells xenografted in SCID mouse assessed as reduction in tumor growth at 1 mg/kg, ip administered as single dose; assay type: functional, organism-based
[34] = Toxicity in mouse xenografted with human MDA-MB-231 cells assessed as reduction in body weight at 1 mg/kg administered as single dose; assay type: organism-based; design: scale not given: the % may be the effect or the level left; conditions: in vivo
MDA-MB-468 [35] = experiment: Antitumor activity against human MDA-MB-468 cells xenografted in nude mouse assessed as reduction in tumor growth at 4 mg/kg, ip administered daily for 30 days by caliper method; assay type: functional, organism-based; conditions: time 30.0 day

In the case of `CN(C)CCNC(=O)c1ccc(CCNc2ncnc3ccc(C#N)cc23)cc1`, the solubility [1] is reported as “Soluble”.

In the case of `CN(C)C(=O)c1ccc(CCNc2ncnc3ccc(C#N)cc23)cc1`, the solubility [1] is reported as “Soluble”.

For `CN1CCN(C(=O)c2ccc3cc(CCNc4ncnc5ccc(C#N)cc45)ccc3c2)CC1` [SENEXIN B], the Activity [2] was “Non-Toxic”, the AUC [3] was 14100 ng·h/mL and the Activity [4] was “Non-Toxic”. For the same compound, the “growth inhibition (GI)” value (4T1) was “inactive”, the Kd [5] was 140 nM and the Activity [6] was “Non-Toxic”. The inhibition [7] was 98.6%, the inhibition [8] was 97.8% and the Activity (MDA-MB-468 [9]) was “Active”. For the same compound, the Activity (MDA-MB-231 [10]) was “Active”, the Activity [11] was “Non-Toxic” and the Activity [12] was “Non-Toxic”. The Activity (MDA-MB-231 [13]) was “Active”, the Activity (MDA-MB-468 [14]) was “Active” and the Activity [15] was “Non-Toxic”. For the same compound, the Activity (A549) was “Active”, the Activity [16] was 20% and the solubility [17] was “Soluble”. The inhibition [18] was “Active”, the Activity (MDA-MB-468 [19]) was “Active” and the inhibition [20] was “Dose-Dependent Effect”. The IC50 [21] was 24 nM, the Activity (MDA-MB-468 [22]) was “Active” and the Activity [23] was 25%. The Activity (MDA-MB-468 [24]) was “Active”, the concentration [25] was 50 µM and the Activity [26] was “Non-Toxic”. The Activity (MDA-MB-468 [27]) was “Active”, the Kd [28] was “Not Active” and the Activity (MDA-MB-468 [29]) was “Active”. For the same compound, the “growth inhibition (GI)” value (MDA-MB-157) was “Dose-Dependent Effect” and the “growth inhibition (GI)” value (MDA-MB-468 [30]) was “Dose-Dependent Effect”.

In the case of `COCCNC(=O)c1ccc(CCNc2ncnc3ccc(C#N)cc23)cc1`, the solubility [1] is reported as “Soluble”.

In the case of `N#Cc1ccc2ncnc(NCc3ccc(Cl)c(C(=O)N4CCOCC4)c3)c2c1`, the solubility [17] is reported as “Soluble”.

In the case of `N#Cc1ccc2ncnc(NCCc3ccc(C(=O)N4CCC(N)C4)cc3)c2c1` (stereo not given), the solubility [1] is reported as “Soluble”.

With `N#Cc1ccc2ncnc(NCCc3ccc(C(=O)N4CCOCC4)cc3)c2c1` the solubility [1] was “Soluble”.

For `CN1CCN(C(=O)c2cc(CNc3ncnc4ccc(C#N)cc34)ccc2Cl)CC1`, the solubility [31] was “Soluble”.

For `N#Cc1ccc2ncnc(NCCc3ccc4cc(C(=O)N5CCOCC5)ccc4c3)c2c1`, the solubility [31] was “Soluble”.

With `COc1cccc2c1C(=O)c1c(O)c3c(c(O)c1C2=O)C[C@@](O)(C(=O)CO)C[C@@H]3O[C@H]1C[C@H](N)[C@H](O)[C@H](C)O1` [DOXORUBICIN] the Activity (MDA-MB-468 [32]) was “Active”, the Activity (MDA-MB-231 [33]) was “Active” and the Activity [34] was 15%. For the same compound, the Activity (MDA-MB-468 [35]) was “Active”.

With `CN1CCN(C(=O)c2ccc(CCNc3ncnc4ccc(C#N)cc34)cc2)CC1` the solubility [1] was “Soluble”.
